Source: patent US20040048834A1, “Antitumoral compounds” (priority 2000, published 2004)
Read-outs that look alike come from different tables or passages of the source.

Key:
Assay type in all cases: cell-based
A549 = test: Cytotoxicity of spisulosine analogs, A549 (after Berjeron et al)
HT29 = test: Cytotoxicity of spisulosine analogs, HT29 (after Berjeron et al)
P388 = test: Cytotoxicity of spisulosine analogs, P388 (after Berjeron et al)
MEL28 = test: Cytotoxicity of spisulosine analogs, MEL28 (after Berjeron et al)
DU145 = test: Cytotoxicity of spisulosine analogs, DU145 (after Berjeron et al)
[1] = A549, methodology after Berjeron et al, NA=not active, read-out: Cytotoxicity IC50 A549
[2] = HT29, methodology after Berjeron et al, NA=not active, read-out: Cytotoxicity IC50 HT29
[3] = P388, methodology after Berjeron et al, NA=not active, read-out: Cytotoxicity IC50 P388
[4] = MEL28, methodology after Berjeron et al, NA=not active, read-out: Cytotoxicity IC50 MEL28
[5] = DU145, methodology after Berjeron et al, NA=not active, read-out: Cytotoxicity IC50 DU145
[6] = Homo sapiens, A549, A549, methodology after Berjeron et al, NA=not active, read-out: Cytotoxicity IC50 A549
[7] = Homo sapiens, HT-29, HT29, methodology after Berjeron et al, NA=not active, read-out: Cytotoxicity IC50 HT29
[8] = Mus musculus, P388, P388, methodology after Berjeron et al, NA=not active, read-out: Cytotoxicity IC50 P388
[9] = Homo sapiens, SK-MEL-28, MEL28, methodology after Berjeron et al, NA=not active, read-out: Cytotoxicity IC50 MEL28
[10] = Homo sapiens, DU-145, DU145, methodology after Berjeron et al, NA=not active, read-out: Cytotoxicity IC50 DU145

SMILES	IC50 (A549; [1])	IC50 (HT29; [2])	IC50 (A549; [6])	IC50 (HT29; [7])	IC50 (P388; [8])	IC50 (MEL28; [9])	IC50 (DU145; [10])	further results
CCCCCCCCCCCCCCC[C@@H](N)[C@H](C)N	1400 nM	1400 nM	–	–	–	–	–	–
CCCCCCCCCCCCCCC[C@@H](OC(=O)C(F)(F)F)[C@H](C)N	20.2 nM	20.2 nM	–	–	–	–	–	–
CCCCCCCCCCCCCCC[C@H](N)[C@H](C)N	280 nM	280 nM	–	–	–	–	–	–
CCCCCCCCCCCCCCC[C@@H](O)[C@H](C)N(C)C	319 nM	319 nM	–	–	–	–	–	IC50 (P388; [3]): 319 nM; IC50 (MEL28; [4]): 319 nM; IC50 (DU145; [5]): 319 nM
CCCCCCCCCCCCCCC[C@@H](O)[C@H](C)NC	334 nM	334 nM	–	–	–	–	–	IC50 (P388; [3]): 334 nM; IC50 (MEL28; [4]): 334 nM; IC50 (DU145; [5]): 334 nM
CCCCCCCCCCCCCCC[C@@H](O)[C@H](C)NS(C)(=O)=O	27.5 nM	27.5 nM	–	–	–	–	–	–
CCCCCCCCCCCCCCCC[C@@H](O)[C@H](C)NS(C)(=O)=O	265 nM	265 nM	–	–	–	–	–	–
CCCCCCCCCCCCCCCC(=NO)C(C)N (stereo not shown)	335 nM	335 nM	–	–	–	–	–	IC50 (P388; [3]): 335 nM; IC50 (MEL28; [4]): 335 nM; IC50 (DU145; [5]): 335 nM
CCCCCCCCCCCCCCCC(=O)[C@@H](C)N	156 nM	156 nM	–	–	–	–	–	IC50 (P388; [3]): 156 nM; IC50 (MEL28; [4]): 313 nM; IC50 (DU145; [5]): 156 nM
CCCCCCCCCCCCC/C=C/[C@@H](O)[C@@H](N)CF	–	–	33.2 nM	33.2 nM	–	–	–	–
CCCCCCCCCCCCCCC[C@H](O)[C@@H](C)N [(2R,3S)-2-Amino-3-octadecanol]	–	–	350 nM	350 nM	350 nM	350 nM	350 nM	–
CCCCCCCCCCCCCCC[C@@H](OC)[C@H](C)N [(2S,3R)-2-Amino-3-(methoxy)-octadecane]	–	–	1670 nM	1670 nM	–	–	–	–
CCCCCCCCCCCCCCCCCCC[C@@H](O)[C@H](C)N [(2S,3R)-2-Amino-3-docosanol]	–	–	–	1460 nM	293 nM	–	1460 nM	–
CCCCCCCCCCCC[C@@H](O)[C@H](C)N [(2S,3R)-2-Amino-3-pentadecanol]	–	–	411 nM	411 nM	411 nM	2050 nM	411 nM	–
CCCCCCCCCCC[C@@H](O)[C@H](C)N [(2S,3R)-2-Amino-3-tetradecanol]	–	–	2180 nM	436 nM	436 nM	2180 nM	2180 nM	–
CCCCCCCCCCCCCCCCCCCC[C@@H](O)[C@H](C)N [(2S,3R)-2-Amino-3-tricosanol]	–	–	–	2810 nM	1410 nM	–	2810 nM	–
CCCCCCCCCCCCCCC[C@@H](OP(=O)(OC)OC)[C@H](C)N [(2S,3R)-2-Amino-O-(dimethylphosphate)-3-octadecanol]	–	–	–	–	–	–	–	IC50 (P388; Mus musculus, P388, read-out: Cytotoxicity IC50 P388): 1270 nM; IC50 (A549; Homo sapiens, A549, read-out: Cytotoxicity IC50 A549): 1270 nM; IC50 (HT29; Homo sapiens, HT-29, read-out: Cytotoxicity IC50 HT29): 1270 nM; IC50 (MEL28; Homo sapiens, SK-MEL-28, read-out: Cytotoxicity IC50 MEL28): 1270 nM; IC50 (DU145; Homo sapiens, DU-145, read-out: Cytotoxicity IC50 DU145): 1270 nM
CCCCCCCCCCCCCCC[C@H](Cl)[C@H](C)N [(2S,3S)-2-Amino-3-chloro-octadecane]	–	–	329 nM	329 nM	329 nM	329 nM	329 nM	–
CCCCCCCCCCCCCCC[C@H](O)[C@H](C)N [(2S,3S)-2-Amino-3-octadecanol]	–	–	350 nM	350 nM	350 nM	350 nM	350 nM	–
CCCCCCCCCCCCCCC[C@@H](O)[C@H](C)N [drawing 36, spisulosine-285, reference compound]	35 nM	35 nM	–	–	–	–	–	IC50 (P388; [3]): 35 nM; IC50 (MEL28; [4]): 175 nM; IC50 (DU145; [5]): 35 nM
CCCCCCCCCCCCCCCC[C@@H](O)[C@H](C)N [drawing 37, (2S,3R)-2-Amino-3-nonadecanol]	33.4 nM	33.4 nM	–	–	33.4 nM	33.4 nM	33.4 nM	–
CCCCCCCCCCCCCCCCC[C@@H](O)[C@H](C)N [drawing 38, (2S,3R)-2-Amino-3-eicosanol]	31.9 nM	31.9 nM	–	–	31.9 nM	319 nM	31.9 nM	–
